# Laboratory results from PubChem BioAssay (NCI).
#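 These data come from cells grown in 96-well plates and exposed to compound for 48 hours at five concentrations. GI50 marks 50% less growth. TGI: total growth inhibition.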
# Columns and labels:
# Experiment in all cases: growth of human tumour cells (NCI), 48 h
# [1] = tested on: DU-145 prostate
# [2] = tested on: IGROV1 ovarian
# [3] = tested on: MCF7 breast
# [4] = tested on: NCI/ADR-RES ovarian
# [5] = tested on: UACC-257 melanoma
# [6] = tested on: LXFL 529 NSCLC
# [7] = tested on: M19-MEL melanoma
SMILES,GI50 [1],TGI [1],GI50 [2],TGI [2],GI50 [3],TGI [3],GI50 [4],TGI [4],GI50 [5],TGI [5],GI50 [6],TGI [6],GI50 [7],TGI [7]
COC(=O)c1cnc(=O)n(C2CC(O)C(CO)O2)c1 (centres undefined),> 100 µM,> 100 µM,> 100 µM,> 100 µM,> 100 µM,> 100 µM,> 100 µM,> 100 µM,> 100 µM,> 100 µM,,,,
Cc1ccc(S(=O)(=O)N/N=C/C(Br)=C(/Br)C(=O)O)cc1,,26.9 µM,,34.7 µM,,51 µM,,17.9 µM,,26.8 µM,,,,
NC(N)=NC(CC(=O)O)c1ccccc1 (centres undefined),,> 100 µM,,> 100 µM,,> 100 µM,,> 100 µM,,> 100 µM,,,,
CC1(C)N=C(N)N=C(N)N1c1cccc(/C=C/C=C/c2cccc([N+](=O)[O-])c2)c1,7.5 µM,20.2 µM,1.18 µM,13.7 µM,5.57 µM,22.4 µM,> 100 µM,> 100 µM,5.42 µM,20.2 µM,,,,
O=S(=O)(c1ccc(NC(=S)N/N=C/c2ccccc2O)cc1)N1CCCCC1,,> 47.4 µM,,> 50.4 µM,,,,0.586 µM,,14.5 µM,,,,
Nc1ccn(C=C=CCO)c(=O)n1,> 1000 µM,> 1000 µM,> 1000 µM,> 1000 µM,> 1000 µM,> 1000 µM,> 1000 µM,> 1000 µM,> 1000 µM,> 1000 µM,,,,
Cc1ccc(-c2c(C#N)c(N)nc(N3CCOCC3)c2C#N)o1,43.5 µM,> 100 µM,21.6 µM,59.6 µM,64.9 µM,> 100 µM,33.6 µM,> 100 µM,99.8 µM,> 100 µM,,,,
C[C@H]1[C@H](OC(=O)CCC(=O)O)O[C@@H]2O[C@]3(C)CC[C@H]4[C@H](C)CC[C@@H]1[C@@]24OO3,6.48 µM,20.1 µM,1.17 µM,5.91 µM,0.698 µM,20.8 µM,0.482 µM,6.15 µM,3.36 µM,> 100 µM,,,,
COc1cc(O)c(C(=O)/C=C/c2ccccc2)c(OC)c1,,21 µM,,17.4 µM,,24.2 µM,,14.4 µM,,23.6 µM,,,,
COc1ccccc1C(=O)/C=C/c1cc2cccc(OC)c2[nH]c1=O,0.0331 µM,0.714 µM,0.0523 µM,2.36 µM,0.0358 µM,4.12 µM,0.0194 µM,13.6 µM,1.63 µM,9.26 µM,,,,
Cc1cc2c(C)c3cc(C)c(N)cc3nc2cc1N,0.749 µM,5.3 µM,1.06 µM,10.8 µM,0.342 µM,4.38 µM,4.92 µM,25.3 µM,2.8 µM,9.96 µM,,,,
COc1cc[nH]c1/C=C1\C(=O)Nc2ccc(F)c(C#C[C@@H](O)[C@@H](N)[C@@H](C)O)c21,0.529 µM,3.5 µM,0.618 µM,5.24 µM,0.545 µM,4.3 µM,6.65 µM,25 µM,0.628 µM,2.17 µM,,,,
C[C@@H](c1ccc2nccn2c1)n1nnc2ncc(-c3cnn(C)c3)nc21,,,> 100 µM,> 100 µM,> 100 µM,> 100 µM,> 100 µM,> 100 µM,> 100 µM,> 100 µM,,,,
CC(=O)c1ccc(Nc2cc(-n3ccnc3)nc3ccccc23)cc1,> 100 µM,> 100 µM,> 100 µM,> 100 µM,36 µM,> 100 µM,> 100 µM,> 100 µM,33.4 µM,> 100 µM,,,,
O=C(Nc1ccncc1)C(=O)c1cn(S(=O)(=O)c2ccc(Br)cc2)c2ccccc12,19 µM,> 100 µM,8.55 µM,> 100 µM,,,2.65 µM,> 100 µM,7.62 µM,> 100 µM,,,,
OB([O][Hg][c]1ccccc1)[O][Hg][c]1ccccc1,0.873 µM,2.29 µM,0.0949 µM,0.401 µM,,,1.69 µM,4.45 µM,0.317 µM,1.14 µM,,,,
O=C1CC(=O)N(C2CCCCC2)C(=O)N1c1ccccc1S(=O)(=O)Oc1ccccc1,,> 100 µM,,30.2 µM,,> 100 µM,,> 100 µM,,> 100 µM,,,,
ClC(=Nc1cccc2ccccc12)N(c1ccccc1)c1ccccc1,,> 100 µM,,> 100 µM,,> 100 µM,,> 100 µM,,> 100 µM,,,,
N#C/C(=C\c1c(-c2ccccc2)[nH]c2ccccc12)C(=O)c1ccc(Cl)cc1,3.54 µM,16.7 µM,4.65 µM,41.5 µM,0.753 µM,14.5 µM,0.575 µM,12.6 µM,30.2 µM,> 87.3 µM,,,,
CC(=O)[CH-]C(=O)c1ccccc1.CC(=O)[CH-]C(=O)c1ccccc1.CCN(CC)CC[O-].CCN(CC)CC[O-].Cl.[Ti+4],,,45.8 µM,> 100 µM,,,,,24.3 µM,96.1 µM,22.2 µM,68.3 µM,17.6 µM,52.2 µM
Nc1nc(N)[n+]([O-])c(N)c1NCO,,> 100 µM,,> 100 µM,,> 100 µM,,> 100 µM,,> 100 µM,,,,
COc1cc(C(=O)O)c([N+](=O)[O-])c(OC)c1OC,,> 100 µM,,> 100 µM,,> 100 µM,,> 100 µM,,> 100 µM,,,,
COc1cc(-c2cc(C(=O)N3CCN(C(=O)c4ccccc4NCc4ccco4)CC3)nc3cc(-c4ccccc4)nn23)cc(OC)c1OC,,,5.44 µM,> 100 µM,0.92 µM,> 100 µM,1.2 µM,> 31.8 µM,3.92 µM,> 100 µM,,,,
Cc1cc(NC(=O)C2c3ccccc3C(=O)N(CC(C)C)C2c2cccs2)no1 (centres undefined),> 100 µM,> 100 µM,> 100 µM,> 100 µM,60 µM,> 100 µM,90.2 µM,> 100 µM,> 100 µM,> 100 µM,,,,
O=C1c2ccccc2-c2c1c1ccccc1c(=O)n2CCO,,> 100 µM,,> 100 µM,,> 100 µM,,> 100 µM,,> 100 µM,,,,
